The results in this text go back to PubChem BioAssay (NCI).

SMILES strings stand for the structures.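 Growth conditions: 96-well plates. Treatment: test compound, 48 hours, 5 concentrations. Analysis: linear interpolation between bracketing concentrations; unreached endpoints set to highest concentration. GI50 = concentration required for 50% inhibition of growth. TGI is the concentration that stops growth completely.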

Test systems include TK-10 renal; OVCAR-8 ovarian; UACC-62 melanoma; SF-539 CNS; BT-549 breast; IGROV1 ovarian; MDA-MB-435; SK-OV-3 ovarian; M14 melanoma; HL-60(TB) leukemia; CAKI-1 renal; HCC-2998 colon; HCT-116 colon; MDA-MB-231 breast.
Assay in all cases: growth of human tumour cells (NCI), 48 h

On to `CSC1=N/C(=C\c2ccc(C)cc2)C(=O)N1`, for which the TGI with TK-10 renal, in the test with OVCAR-8 ovarian, in the test with UACC-62 melanoma, in the test on SF-539 CNS, in the test on BT-549 breast and with IGROV1 ovarian was greater than 100 µM throughout. For the same compound, the TGI in the test with MDA-MB-435, with SK-OV-3 ovarian, in the test with M14 melanoma, with HL-60(TB) leukemia, with CAKI-1 renal and with HCC-2998 colon was greater than 100 µM each time. Further, the TGI with HCT-116 colon and with MDA-MB-231 breast was greater than 100 µM each time.
With `Cn1c(-c2cccs2)cc(-c2cccs2)c1-c1cccs1`, the TGI with TK-10 renal, in the test with OVCAR-8 ovarian, in the test with UACC-62 melanoma, in the test on SF-539 CNS, with BT-549 breast and in the test with IGROV1 ovarian was greater than 100 µM each time. In addition, the TGI in the test with MDA-MB-435, in the test on SK-OV-3 ovarian, with M14 melanoma, in the test with HL-60(TB) leukemia, in the test with CAKI-1 renal and with HCC-2998 colon was greater than 100 µM in each case. Also, the TGI with HCT-116 colon and with MDA-MB-231 breast was greater than 100 µM in each case.
For `COc1cc2c(cc1C)NC(=O)/C2=C/c1cccnc1`, the TGI is 31.1 µM in the test with TK-10 renal; greater than 58.7 µM in the test on OVCAR-8 ovarian; 25.9 µM in the test on UACC-62 melanoma; greater than 84.7 µM in the test with SF-539 CNS; greater than 82 µM in the test on BT-549 breast; greater than 100 µM in the test on IGROV1 ovarian. For the same compound, the TGI with MDA-MB-435 worked out at 86.1 µM; in the test with SK-OV-3 ovarian it was 34.3 µM; with M14 melanoma, 37.5 µM; with HL-60(TB) leukemia, 26.2 µM; in the test with CAKI-1 renal it was 30.3 µM; in the test on HCC-2998 colon it was 8.28 µM. Also, the TGI was determined as 31.2 µM with HCT-116 colon and 27.5 µM in the test on MDA-MB-231 breast. Also, the GI50 with UACC-62 melanoma is 10.1 µM; with IGROV1 ovarian it was 19.5 µM; in the test with MDA-MB-231 breast it was 9.27 µM.
Take `CCCCCCCC(CC(=O)NC(CO)C(=O)NC(CO)CC(C)C)OC(=O)CC(CCCCCCC)OC(=O)CC(CCCCCCC)OC1OC(C)C(O)C(OC2OC(C)C(O)C(OC(C)=O)C2O)C1O` (centres undefined): the TGI was 29.2 µM in the test on TK-10 renal; 28.3 µM in the test with OVCAR-8 ovarian; 25.8 µM in the test on UACC-62 melanoma; 24.5 µM with SF-539 CNS; 19.9 µM in the test with BT-549 breast; 24.8 µM in the test with IGROV1 ovarian. The TGI in the test with MDA-MB-435 turned out to be 23 µM; in the test on SK-OV-3 ovarian, 30.8 µM; in the test on M14 melanoma it was 22.6 µM; in the test on HL-60(TB) leukemia, 23.4 µM; in the test with CAKI-1 renal, 30.2 µM; in the test on HCC-2998 colon it was 23.2 µM. Moreover, the TGI came to 25.8 µM with HCT-116 colon and 23.4 µM in the test with MDA-MB-231 breast.
For the compound `O=C1c2ccccc2-c2nnc(-c3ccc([N+](=O)[O-])cc3)cc21`, the TGI in the test on TK-10 renal, with OVCAR-8 ovarian, with UACC-62 melanoma, with SF-539 CNS, with BT-549 breast and in the test with IGROV1 ovarian was greater than 10 µM each time. Moreover, the TGI with MDA-MB-435, in the test on SK-OV-3 ovarian, with M14 melanoma, in the test on HL-60(TB) leukemia, in the test on CAKI-1 renal and in the test on HCC-2998 colon was greater than 10 µM each time. For the same compound, the TGI in the test with HCT-116 colon and with MDA-MB-231 breast was greater than 10 µM in each case.
Consider `Cc1sc2nc(N(C)C)oc(=O)c2c1C`, for which the TGI is greater than 100 µM in the test with TK-10 renal; greater than 100 µM with OVCAR-8 ovarian; greater than 100 µM with UACC-62 melanoma; greater than 100 µM in the test with SF-539 CNS; 49.1 µM in the test on BT-549 breast; greater than 100 µM with IGROV1 ovarian. Also, the TGI in the test on MDA-MB-435, with SK-OV-3 ovarian, in the test with M14 melanoma, with HL-60(TB) leukemia, with CAKI-1 renal and in the test on HCC-2998 colon was greater than 100 µM throughout. Besides, the TGI in the test on HCT-116 colon and in the test with MDA-MB-231 breast was greater than 100 µM each time.
`CC(C)CCCC(C)[C@H]1CC[C@H]2n3c(nnc3-c3ccccc3)CCC[C@]12C` (some centres undefined): the TGI in the test with TK-10 renal is 57.2 µM; in the test on OVCAR-8 ovarian, 67.2 µM; in the test on UACC-62 melanoma, 27.3 µM; in the test with SF-539 CNS it was 25.1 µM; in the test on BT-549 breast, 41.7 µM; in the test on IGROV1 ovarian, 23.4 µM. Also, the TGI was determined as 25.7 µM in the test with MDA-MB-435; 26.9 µM with SK-OV-3 ovarian; 30.1 µM in the test with M14 melanoma; 16.2 µM in the test with HL-60(TB) leukemia; 29.7 µM with CAKI-1 renal; 0.0669 µM with HCC-2998 colon. The TGI was 40.4 µM in the test on HCT-116 colon and 37.9 µM with MDA-MB-231 breast.
As for `COc1ccc(CNc2ccn(C3OC(CO)C(O)C3O)c(=O)n2)cc1` (centres undefined), the TGI with TK-10 renal, in the test on OVCAR-8 ovarian, with UACC-62 melanoma, in the test on SF-539 CNS, in the test with BT-549 breast and in the test with IGROV1 ovarian was greater than 100 µM throughout. Also, the TGI in the test with MDA-MB-435 was greater than 100 µM; with SK-OV-3 ovarian, greater than 100 µM; with M14 melanoma it was greater than 100 µM; in the test on HL-60(TB) leukemia, 83.3 µM; with CAKI-1 renal, greater than 100 µM; in the test on HCC-2998 colon it was greater than 100 µM. Also, the TGI in the test on HCT-116 colon and with MDA-MB-231 breast was greater than 100 µM in each case.
As for `CN1CCCC2C(c3ccccc3)C(C3=NCCCC3)C(c3ccccc3)CC21` (centres undefined), the TGI in the test on TK-10 renal is greater than 100 µM; in the test with OVCAR-8 ovarian it was greater than 100 µM; in the test on UACC-62 melanoma, 32.4 µM; with SF-539 CNS, 31.3 µM; in the test on BT-549 breast it was greater than 100 µM; with IGROV1 ovarian, greater than 100 µM. In addition, the TGI in the test with MDA-MB-435 is 36.6 µM; with SK-OV-3 ovarian, greater than 100 µM; in the test on M14 melanoma, 40.4 µM; with HL-60(TB) leukemia, greater than 100 µM; in the test with CAKI-1 renal it was greater than 100 µM; in the test with HCC-2998 colon it was 31.4 µM. The TGI with HCT-116 colon and in the test with MDA-MB-231 breast was greater than 100 µM each time.
